According to article PMC3478670 (Journal of medicinal chemistry, 2012):

system: HIV-1NL4-3; assay: HIV-1NL4-3 replication inhibition assay in MT-4 lymphocytes; type: cell-based; conditions: HIV-1NL4-3 infected MT-4 cells

SMILES | anti-HIV replication activity (in words)
C=C(C)[C@@H]1CC[C@]2(C(=O)OCOC)CC[C@]3(C)[C@H](CC[C@@H]4[C@@]5(C)CC[C@H](OCOC)C(C)(C)[C@@H]5CC[C@]43C)[C@@H]12 [Compound 3, Methoxymethyl 3β-methoxymethoxy-lup-20(29)-en-28-oate] | did not show anti-HIV activity
C=C(C)[C@@H]1CC[C@]2(C(=O)OCOCCOC)CC[C@]3(C)[C@H](CC[C@@H]4[C@@]5(C)CC[C@H](OCOCCOC)C(C)(C)[C@@H]5CC[C@]43C)[C@@H]12 [Compound 4, Methoxyethoxymethyl 3β-methoxyethoxymethoxy-lup-20(29)-en-28-oate] | did not show anti-HIV activity
C=C(C)[C@@H]1CC[C@]2(C(=O)O)CC[C@]3(C)[C@H](CC[C@@H]4[C@@]5(C)CC[C@H](OCOC)C(C)(C)[C@@H]5CC[C@]43C)[C@@H]12 [Compound 5, 3β-Methoxymethoxy-betulinic acid] | did not show anti-HIV activity
C=C(C)[C@@H]1CC[C@]2(C(=O)O)CC[C@]3(C)[C@H](CC[C@@H]4[C@@]5(C)CC[C@H](OCOCCOC)C(C)(C)[C@@H]5CC[C@]43C)[C@@H]12 [Compound 6, 3β-Methoxyethoxymethoxy-betulinic acid] | did not show anti-HIV activity
C=C(C)[C@@H]1CC[C@]2(C(=O)OCOC)CC[C@]3(C)[C@H](CC[C@@H]4[C@@]5(C)CC[C@H](O)C(C)(C)[C@@H]5CC[C@]43C)[C@@H]12 [Compound 7, Methoxymethyl 3β-hydroxy-lup-20(29)-en-28-oate] | did not show anti-HIV activity
C=C(C)[C@@H]1CC[C@]2(C(=O)OCOCCOC)CC[C@]3(C)[C@H](CC[C@@H]4[C@@]5(C)CC[C@H](O)C(C)(C)[C@@H]5CC[C@]43C)[C@@H]12 [Compound 8, Methoxyethoxymethyl 3β-hydroxy-lup-20(29)-en-28-oate] | did not show anti-HIV activity
C=C(C)[C@@H]1CC[C@]2(C(=O)OCCCCCCCC)CC[C@]3(C)[C@H](CC[C@@H]4[C@@]5(C)CC[C@H](OC(=O)CC(C)(C)C(=O)O)C(C)(C)[C@@H]5CC[C@]43C)[C@@H]12 [Compound 23, Octyl 3β-O-(3′,3′-dimethylsuccinyl)-lup-20(29)-en-28-oate] | no inhibition of HIV-1 replication

system: not listed separately; assay: in vitro; conditions: human, pooled human liver microsomes, pH 7.4

SMILES | microsomal CLint at 1 μM
C=C(C)[C@@H]1CC[C@]2(C(=O)N3CCN(CCCCC(=O)O)CC3)CC[C@]3(C)[C@H](CC[C@@H]4[C@@]5(C)CC[C@H](OC(=O)CC(C)(C)C(=O)O)C(C)(C)[C@@H]5CC[C@]43C)[C@@H]12 [Compound 41, N-[3β-O-(3′,3′-Dimethylsuccinyl)-lup-20(29)-en-28-oyl]-5-piperazinepentanoic acid] | 2.1 µL/min/mg
